Literature values as cited in CN114794330A, “一种调节水生动物活力状态的功能性调理剂及其制备方法” (Nori Shanghai Bioengineering Co ltd, priority 2022, dated 2022).

solubility in 95% ethanol (95% ethanol, 17℃): 0.004%
solubility in acetone (acetone): 不溶
solubility in anhydrous ethanol (anhydrous ethanol): 不溶
solubility in diethyl ether (diethyl ether): 不溶
solubility in water (water, 12℃): 0.5%
Compound: NCCS(=O)(=O)O [牛磺酸, 2-氨基乙磺酸]
